Measured values as given in patent publication US4925968A, “N-acyl-N-naphthoylglycines as aldose reductase inhibitors” (American Home Products Corporation, priority 1989, dated 1990).

Test system: aldose reductase
Assay: galactitol (dulcitol) accumulation in lens, sciatic nerve and diaphragm of galactosemic rats
Assay type: in vivo, rat (Sprague-Dawley, male)
Details: 4 days; for % Lowering dulcitol accumulation IN VIVO, D: diaphragm; for % Lowering dulcitol accumulation IN VIVO, L: lens
Description: Such experiments are exemplified hereinbelow after the listing of the following general comments pertaining to these experiments: (a) Four or more groups of six male rats, 50-70 g, Sprague-Dawley strain, were used. The first group, the control group, was fed a mixture of laboratory chow (rodent Laboratory Chow, Purina) and glucose at 20% (w/w %) concentration. […] The test compound was either admixed to the diet or administered by gavage. In experiments involving compound administration in the diet, the average dose administered was calculated from the actual food intake of the animals in each group. The concentration of galactose in the diet of the treated groups was the same as that for the untreated galactosemic group. (b) After four days, the animals were killed by decapitation. The eyeballs were removed and punctured with a razor blade; the freed lenses were rolled gently on filter paper and weighed. The sciatic nerves were dissected as completely as possible and weighed. Both tissues when frozen can be kept up to two weeks before being analyzed for galactitol. […] Only two minor reagent changes were made: (a) The rinsing mixture was an aqueous 5% (w/v) trichloroacetic acid solution and (b) the stock solution was prepared by dissolving 25 mg of dulcitol in 100 mL of an aqueous trichloroacetic acid solution. [N.B.: For each experiment the average value found in the tissue from rats fed the glucose diet was subtracted from the individual values found in the corresponding tissue in galactose-fed rats to obtain the amount of polyol accumulated.] […] In the present case the procedure of Hayman and Kinoshita was modified in that the final chromatography step was omitted in the preparation of the enzyme from bovine lens. […] The figures under L, N, and D represent the percentage decrease of galactitol accumulation in the tissues of the lens, sciatic nerve, and diaphragm, respectively, for treated rats as compared to untreated rats.

SMILES: COC(=O)N(CC(=O)O)C(=O)c1cccc2c(Br)cccc12 [Example 12]
- % Lowering dulcitol accumulation IN VIVO, D (102 mg/kg): 24%
- % Lowering dulcitol accumulation IN VIVO, L (102 mg/kg): N.S.

SMILES: COc1ccc2c(C(=O)N(CC(=O)O)C(=O)c3ccccc3)cccc2c1C(F)(F)F [Example 10, N-Benzoyl-N-[[6-methoxy-5-(trifluoromethyl)-1-naphthalenyl]carbonyl]glycine]
- % Lowering dulcitol accumulation IN VIVO, D (50 mg/kg): N.S.
- % Lowering dulcitol accumulation IN VIVO, L (50 mg/kg): N.S.

SMILES: COc1ccc2c(C(=O)N(CC(=O)O)C(=O)OC(C)C)cccc2c1C(F)(F)F [Example 4]
- % Lowering dulcitol accumulation IN VIVO, D (dose (mg/kg) printed as N.S.): N.S.
- % Lowering dulcitol accumulation IN VIVO, L (dose (mg/kg) printed as N.S.): N.S.

SMILES: O=C(O)CN(C(=O)c1ccccc1)C(=O)c1cccc2c(Br)cccc12 [Example 16]
- % Lowering dulcitol accumulation IN VIVO, D (111 mg/kg): N.S.
- % Lowering dulcitol accumulation IN VIVO, L (111 mg/kg): N.S.

SMILES: COc1ccc2c(C(=O)N(CC(=O)O)C(=O)OCc3ccccc3)cccc2c1C(F)(F)F [Example 6]
- % Lowering dulcitol accumulation IN VIVO, D (67 mg/kg): N.S.
- % Lowering dulcitol accumulation IN VIVO, L (67 mg/kg): N.S.

SMILES: CCOC(=O)N(CC(=O)O)C(=O)c1cccc2c(C(F)(F)F)c(OC)ccc12 [Example 1, N-[[6-Methoxy-5-(trifluoromethyl)-1-naphthalenyl]carbonyl]-N-[(ethoxy)carbonyl]glycine]
- % Lowering dulcitol accumulation IN VIVO, D (57 mg/kg): 70%
- % Lowering dulcitol accumulation IN VIVO, D (97 mg/kg): 83%
- % Lowering dulcitol accumulation IN VIVO, L (57 mg/kg): 19%
- % Lowering dulcitol accumulation IN VIVO, L (97 mg/kg): 12%

SMILES: O=CN(CC(=O)O)C(=O)c1cccc2c(Br)cccc12 [Example 14]
- % Lowering dulcitol accumulation IN VIVO, D (104 mg/kg): 17%
- % Lowering dulcitol accumulation IN VIVO, L (104 mg/kg): N.S.

SMILES: COc1ccc2c(C(=O)N(CC(=O)O)C(=O)OCC(C)(C)C)cccc2c1C(F)(F)F [Example 5]
- % Lowering dulcitol accumulation IN VIVO, D (105 mg/kg): N.S.
- % Lowering dulcitol accumulation IN VIVO, L (105 mg/kg): N.S.

SMILES: COc1ccc2c(C(=O)N(CC(=O)O)C(C)=O)cccc2c1C(F)(F)F [Example 9]
- % Lowering dulcitol accumulation IN VIVO, D (100 mg/kg): 39%
- % Lowering dulcitol accumulation IN VIVO, L (100 mg/kg): N.S.

SMILES: CCCOC(=O)N(CC(=O)O)C(=O)c1cccc2c(C(F)(F)F)c(OC)ccc12 [Example 3]
- % Lowering dulcitol accumulation IN VIVO, D (48 mg/kg): N.S.
- % Lowering dulcitol accumulation IN VIVO, L (48 mg/kg): N.S.

SMILES: COc1ccc2c(C(=O)N(CC(=O)O)C(=O)OCc3ccc(Cl)c([N+](=O)[O-])c3)cccc2c1C(F)(F)F [Example 7]
- % Lowering dulcitol accumulation IN VIVO, D (107 mg/kg): N.S.
- % Lowering dulcitol accumulation IN VIVO, L (107 mg/kg): N.S.

SMILES: COC(=O)N(CC(=O)O)C(=O)c1cccc2c(C(F)(F)F)c(OC)ccc12 [Example 2, N-[[6-Methoxy-5-(trifluoromethyl)-1-naphthalenyl]-carbonyl]-N-[(methoxy)carbonyl]glycine]
- % Lowering dulcitol accumulation IN VIVO, D (48 mg/kg): 54%
- % Lowering dulcitol accumulation IN VIVO, L (48 mg/kg): N.S.

SMILES: CC(=O)N(CC(=O)O)C(=O)c1cccc2c(Br)cccc12 [Example 15]
- % Lowering dulcitol accumulation IN VIVO, D (112 mg/kg): N.S.
- % Lowering dulcitol accumulation IN VIVO, L (112 mg/kg): N.S.

SMILES: COc1ccc2c(C(=O)N(C=O)CC(=O)O)cccc2c1C(F)(F)F [Example 8, N-Formyl-N-[[6-methoxy-5-(trifluoromethyl)-1-naphthalenyl]carbonyl]glycine]
- % Lowering dulcitol accumulation IN VIVO, D (107 mg/kg): 82%
- % Lowering dulcitol accumulation IN VIVO, L (107 mg/kg): 13%
